Reference: patent publication US20210348164A1, “ENDOGENOUS CYTOPLASMIC ALU COMPLEMENTARY DNA IN AGE-RELATED MACULAR DEGENERATION” (University of Virginia Patent Foundation, priority 2018, published 2021)
Entries after “also recorded” stand apart in the source; their conditions may differ.

What was measured:
[1] = test system: reverse transcriptase activity of cytoplasmic fractions of F9 cells; assay: In vitro reverse transcriptase activity of cytoplasmic fractions (Alu RNA-templated, Alu-specific qPCR); assay type: biochemical, mouse
Description: In vitro reverse transcriptase (RT) activity. In vitro reverse transcriptase (RT) activity in nuclear and cytoplasmic protein fractions was assessed using an Alu RNA-templated reaction. The RT reaction was carried out in a 20 μl reaction mix containing Alu RNA template (10 ng); Alu primer ([…]); dNTPs mix; cytoplasmic or nuclear protein, and Quantiscript RT Buffer (Qiagen). The reaction mixture was incubated at 42° C. for 30 minutes. The resulting cDNA was quantified by qPCR using Alu RNA template-specific primers. The reaction to evaluate self-priming activity of Alu RNA was carried out in the absence of priming oligos in a 20 μl reaction mix containing: Alu RNA with 3′-U tail; dNTP mix; cytoplasmic protein from mouse RPE cells; and Quantiscript RT Buffer (Qiagen) as described above. The resulting cDNA product was quantified by qPCR using Alu RNA template-specific primers. Alu RNA tailed on the 3′ end with chain terminator dideoxy thymidine base (ddTTP) was generated using TdT (New England Biolabs (NEB)) according to the manufacturer's instructions. Alu RNA tailed on the 3′ end with chain terminator cordycepin tri-phosphate was generated using PAP (NEB) according to the manufacturer's instructions.

reverse transcriptase = conditions: Fowler et al., 2014; Ambati et al., 2018; cited from earlier work
[2] = test system: Alu cDNA in primary human RPE cells; assay: Alu cDNA in primary human RPE cells (Alu c-PCR, real-time PCR, in situ hybridization, equator blotting); assay type: cell-based; conditions: primary human RPE cells; cytoplasmic fraction; Alu c-PCR
Description: Cell culture and transfection. Primary mouse and human RPE cells were isolated as previously described (Kerur et al., 2018). All cells were maintained at 37° C. in a 5% CO2 environment. Mouse RPE cells were cultured in DMEM supplemented with 20% FBS and penicillin/streptomycin antibiotics at standard concentrations; primary human RPE cells were maintained in DMEM supplemented with 10% FBS and antibiotics. The human RPE cell line ARPE19 was cultured as previously described (Kerur et al., 2018) and maintained in DMEM-F12 containing penicillin/streptomycin, Fungizone, and gentamicin. HEK293T cells were cultured in DMEM with 10% fetal bovine serum (FBS) with 100 U/ml penicillin/streptomycin and 2 mM L-glutamine. Primary wild-type mouse bone marrow-derived macrophages (BMDMs) were isolated, and cultured in Iscove's Modified Dulbecco's Medium (IMDM) supplemented with 30% L929 supernatant containing macrophage-stimulating factor, nonessential amino acids, sodium pyruvate, 10% FBS and antibiotics, 50 μM β-mercaptoethanol (Seo et al., 2015), and serum starved in IMDM with 1% FBS and 100 U/ml penicillin/streptomycin overnight prior to LPS stimulation. NRTIs or NNRTIs were added 30 minutes prior to LPS stimulation and again 30 minutes prior to ATP activation. LPS (100 ng/mL) was added for 3-4 hours prior to the addition of ATP. Cell lysates were collected 30 minutes after addition of ATP (5 mM). Primary human subcutaneous pre-adipocytes (Catalogue No. PCS-210-010, ATCC, Manassas, Va., United States of America) and primary human dermal fibroblasts (Catalogue No. PCS-201-012, ATCC) were grown in fibroblast basal medium with fibroblast growth kit for low serum (ATCC).
Umbilical artery vascular smooth muscle cells (Catalogue No. CC-2579, Lonza, Morristown, N.J., United States of America) were grown in SMGM™-2 Smooth Muscle Growth Medium-2 BULLETKIT™ (Lonza). Primary human skeletal myoblasts (Catalogue No. A11440, Thermo Fisher Scientific) were grown in DMEM with 2% horse serum. Primary human epidermal keratinocytes (Catalogue NO. CO215C, Thermo Fisher Scientific) were grown in EPILIFE® Medium (Thermo Fisher Scientific). Human umbilical vein endothelial cells (HUVEC) were grown in HUVEC EGM™-2 Media (Lonza). Primary human peripheral blood mononuclear cells (Catalogue NO. PCS-800-011, ATCC) were directly used without culture for experiments. RPMI 1640 medium with 10% human serum with human GM-CSF (Miltenyi Biotec Inc., Auburn, Calif., United States of America) was used as media during the experiment. Transfections were performed according to the manufacturer's instructions (LIPOFECTAMINE® 2000, Invitrogen). For transfection of primary human peripheral blood mononuclear cells, HiPerFect Transfection Reagent (Qiagen) was used as previously described (Troegeler et al., 2014). NRTIs were administered 60 minutes before transfection and added again upon replacement of media at 8 hours. To induce acid injury or osmotic stress, primary human RPE cells were treated with HCl (pH 4.0 media) or H2O for 30 minutes, 1 hour, and 2 hours at 37° C. in 5% CO2, respectively. NIH3T3 Tet-ON cells were cultured in DMEM with 10% tetracycline-free fetal bovine serum (FBS) with 100 U/ml penicillin/streptomycin. NIH3T3 Tet-ON cells were transfected with pLD401 (see Taylor et al., 2013; gift of J. D. Boeke, Institute for Systems Genetics, NYU Langone Health, New York, New York, United States of America) and human L1 ORF1p abundance was monitored after 24 hours of doxycycline induction. […]

[3] = test system: Alu cDNA in ARPE-19 cells; assay: Alu cDNA in ARPE-19 cells (Alu c-PCR, in situ hybridization); assay type: cell-based, human; conditions: Alu c-PCR
Description: Cell culture and transfection. Primary mouse and human RPE cells were isolated as previously described (Kerur et al., 2018). All cells were maintained at 37° C. in a 5% CO2 environment. Mouse RPE cells were cultured in DMEM supplemented with 20% FBS and penicillin/streptomycin antibiotics at standard concentrations; primary human RPE cells were maintained in DMEM supplemented with 10% FBS and antibiotics. The human RPE cell line ARPE19 was cultured as previously described (Kerur et al., 2018) and maintained in DMEM-F12 containing penicillin/streptomycin, Fungizone, and gentamicin. HEK293T cells were cultured in DMEM with 10% fetal bovine serum (FBS) with 100 U/ml penicillin/streptomycin and 2 mM L-glutamine. […]
In situ hybridization. […] Visualization of fluorescein-labelled probe was performed with the TSA™ plus fluorescence system or the TSA™ plus Cy5 system (PerkinElmer). The fluorescent or Cy5 signals were detected using a Leica SP-5 or MR Nikon confocal microscope system. […]

| Molecule | Alu cDNA formation from Alu RNA (reverse transcriptase activity) [1] | inhibition of reverse transcriptase (reverse transcriptase) | Endogenous Alu cDNA abundance [2] | Endogenous Alu cDNA abundance [3] |
| --- | --- | --- | --- | --- |
| azidothymidine triphosphate [AZT-TP] | reduced Alu cDNA synthesis; also recorded: reduced Alu cDNA formation | inhibits reverse transcription | – | – |
| Cc1cn([C@H]2C=C[C@@H](CO)O2)c(=O)[nH]c1=O [d4T, 2′,3′-didehydro-2′,3′-dideoxythymidine] | – | – | dramatically decreased Alu cDNA levels; also recorded: reduced | reduced |
